≈ marks a conversion by molar mass, not a printed value. Numbered stars: 1 amine (or outer) side, 2 acyl side, 3 side chain; on linkers, the order of the positions; unused ones are H or OH. Bridge positions count the residues as written; N and C are the ends. Square brackets hold non-standard residues; d marks the D form. Peptide text beside a SMILES is read from it. * marks the point of attachment. Orn(4R-OH,5R-OCH2CH2NMe3+) = C[N+](C)(C)CCO[C@@H](N[*:3])[C@H](O)C[C@H](N[*:1])C(=O)[*:2]; pTerphenylCO(4''-OnC5H11) = CCCCCOc1ccc(-c2ccc(-c3ccc(C(=O)*)cc3)cc2)cc1; hTyr(3S-OH,4S-OH) = N[C@H](C(=O)O)[C@H](O)[C@@H](O)c1ccc(O)cc1; Pro(3S-OH,4S-Me) = C[C@H]1CN[C@H](C(=O)O)[C@H]1O; Hyp = O=C(O)[C@@H]1C[C@@H](O)CN1
Key:
[1] = Clearance in dog plasma assessed as half-life; format: ADME, cell-free, Canis lupus familiaris
[2] = Clearance in rat plasma assessed as half-life; format: ADME, cell-free
[3] = target: Sodium/glucose cotransporter 2 (Homo sapiens, UniProt P31639); assay: Inhibition of human SGLT2
Chain of Sodium/glucose cotransporter 2 (P31639 whole entry): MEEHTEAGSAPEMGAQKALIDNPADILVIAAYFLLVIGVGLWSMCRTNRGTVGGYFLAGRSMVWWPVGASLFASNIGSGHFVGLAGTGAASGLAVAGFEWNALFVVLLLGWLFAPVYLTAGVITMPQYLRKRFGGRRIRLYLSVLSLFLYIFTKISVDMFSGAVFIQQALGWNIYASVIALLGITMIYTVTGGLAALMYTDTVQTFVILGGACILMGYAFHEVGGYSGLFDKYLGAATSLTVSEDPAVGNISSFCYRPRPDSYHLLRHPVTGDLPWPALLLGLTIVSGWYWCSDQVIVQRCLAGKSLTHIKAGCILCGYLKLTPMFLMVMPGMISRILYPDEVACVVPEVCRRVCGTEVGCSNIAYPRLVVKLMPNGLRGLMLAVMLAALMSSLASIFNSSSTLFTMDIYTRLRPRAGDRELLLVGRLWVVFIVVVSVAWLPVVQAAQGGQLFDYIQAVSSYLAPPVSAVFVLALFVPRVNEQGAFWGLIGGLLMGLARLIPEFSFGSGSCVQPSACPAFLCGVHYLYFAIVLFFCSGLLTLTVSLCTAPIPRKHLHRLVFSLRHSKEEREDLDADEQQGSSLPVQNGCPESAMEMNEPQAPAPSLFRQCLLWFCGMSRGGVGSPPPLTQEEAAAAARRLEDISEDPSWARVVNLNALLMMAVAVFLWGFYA

[4] = Oral bioavailability in mouse; format: ADME, organism-based; conditions: in vivo
[5] = Oral bioavailability in rat; format: ADME, organism-based; conditions: in vivo
[6] = Half-life in rat at 10 mg/kg, po; format: ADME, organism-based; conditions: in vivo
[7] = target: Sterol O-acyltransferase 1 (Homo sapiens, UniProt P35610); assay: Inhibition of ACAT in human THP-1; format: cell-based
Chain of Sterol O-acyltransferase 1 (P35610 whole entry): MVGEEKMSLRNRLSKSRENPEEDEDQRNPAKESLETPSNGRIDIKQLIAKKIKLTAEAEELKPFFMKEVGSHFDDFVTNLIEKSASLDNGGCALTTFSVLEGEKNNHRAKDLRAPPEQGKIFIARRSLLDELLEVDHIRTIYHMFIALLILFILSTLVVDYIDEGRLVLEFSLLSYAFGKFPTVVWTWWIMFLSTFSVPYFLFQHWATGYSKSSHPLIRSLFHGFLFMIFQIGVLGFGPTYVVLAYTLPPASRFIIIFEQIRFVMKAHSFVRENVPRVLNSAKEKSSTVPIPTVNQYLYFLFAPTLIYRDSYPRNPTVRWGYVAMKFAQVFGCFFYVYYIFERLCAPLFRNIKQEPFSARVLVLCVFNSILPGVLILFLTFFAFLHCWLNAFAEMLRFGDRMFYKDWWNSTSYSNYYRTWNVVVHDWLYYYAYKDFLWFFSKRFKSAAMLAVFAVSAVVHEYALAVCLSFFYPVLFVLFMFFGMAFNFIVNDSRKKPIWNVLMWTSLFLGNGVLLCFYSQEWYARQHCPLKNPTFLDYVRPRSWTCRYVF

[8] = Oral bioavailability in rat relative to plasma exposure; format: ADME, organism-based
[9] = Oral bioavailability in rat relative to urinary excretion; format: ADME, organism-based; conditions: urine
Mus musculus = organism: Mus musculus; assay: Analgesic activity in mouse assessed as protection against phenylbenzoquinone-induced writhing; format: functional
[10] = Drug metabolism at pH 2 assessed as parent compound remaining measured after 120 mins; format: physicochemical; conditions: read-out: Drug metabolism
Plasmodium falciparum = assay: Antiplasmodial activity against Plasmodium falciparum FCB1 assessed as inhibition of parasite growth; format: functional, organism-based
[11] = Antiplasmodial activity against Plasmodium berghei NK 173 infected in ICR (CD-1) mouse assessed as inhibition of parasite growth administered intraperitoneally for four days; conditions: NK 173, 96 h
[12] = Stability of the compound at pH 2 assessed as half-life; format: physicochemical; conditions: buffer
[13] = Inhibition of Leukotriene B4 production in human blood Polymorphonuclear neutrophil cells; format: functional, tissue-based
Homo sapiens = organism: Homo sapiens; assay: Inhibition of Leukotriene B4 production in human whole blood; format: functional
[14] = Stability in rat plasma assessed as drug degradation measured after 44 hrs; format: ADME, cell-free; conditions: read-out: Drug degradation
[15] = Stability in dog plasma assessed as drug degradation measured after 44 hrs; format: ADME, cell-free, Canis lupus familiaris; conditions: read-out: Drug degradation
[16] = Stability in human plasma assessed as drug degradation measured after 44 hrs; format: ADME, cell-free; conditions: read-out: Drug degradation
[17] = Stability in monkey plasma assessed as drug degradation measured after 44 hrs; format: ADME, cell-free, Macaca mulatta; conditions: rhesus monkey, read-out: Drug degradation
[18] = Aqueous solubility of the compound at pH 1.3 to 8; format: physicochemical; conditions: buffer
[19] = Stability of the compound at pH 7.30 assessed as degradation half life; format: physicochemical; conditions: buffer, pH 7.3
[20] = Stability of the compound at pH 1.3 assessed as degradation half life; format: physicochemical; conditions: buffer
[21] = Oral bioavailability in monkey; format: ADME, organism-based, Macaca mulatta; conditions: rhesus monkey, in vivo
[22] = Tmax in rhesus monkey at 40 mg/kg, po; format: ADME, organism-based, Macaca mulatta; conditions: in vivo
[23] = Terminal half-life in rhesus monkey at 40 mg/kg, po; format: ADME, organism-based, Macaca mulatta; conditions: in vivo, read-out: beta t1/2 (converted)
[24] = Tmax in human; format: ADME
[25] = Half-life in human; format: ADME
[26] = Oral bioavailability in dog; format: ADME, organism-based, Canis lupus familiaris; conditions: in vivo
[27] = target: Somatostatin receptor type 2 (Homo sapiens, UniProt P30874); assay: Inhibition of human SSTR2
Chain of Somatostatin receptor type 2 (P30874 whole entry): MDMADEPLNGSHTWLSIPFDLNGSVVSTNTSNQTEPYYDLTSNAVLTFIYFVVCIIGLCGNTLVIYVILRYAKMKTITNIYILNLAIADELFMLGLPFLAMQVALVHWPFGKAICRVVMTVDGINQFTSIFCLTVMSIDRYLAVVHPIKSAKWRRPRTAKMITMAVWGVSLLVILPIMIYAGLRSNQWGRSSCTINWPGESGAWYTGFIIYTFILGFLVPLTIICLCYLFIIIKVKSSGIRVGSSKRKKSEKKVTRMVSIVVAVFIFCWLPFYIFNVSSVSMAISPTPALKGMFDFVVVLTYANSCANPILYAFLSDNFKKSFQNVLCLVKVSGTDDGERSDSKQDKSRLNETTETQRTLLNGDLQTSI

[28] = Half-life of the compound in aqueous solution at pH 6.0; format: physicochemical
[29] = Terminal half-life in iv dosed rat; format: ADME, organism-based; conditions: in vivo, read-out: beta t1/2 (converted)
[30] = target: T1, Neutrophil elastase (Homo sapiens) (UniProt P08246); assay: Time-dependent inhibition of human leukocyte elastase assessed as observed binding constant
T1 sequence (whole entry): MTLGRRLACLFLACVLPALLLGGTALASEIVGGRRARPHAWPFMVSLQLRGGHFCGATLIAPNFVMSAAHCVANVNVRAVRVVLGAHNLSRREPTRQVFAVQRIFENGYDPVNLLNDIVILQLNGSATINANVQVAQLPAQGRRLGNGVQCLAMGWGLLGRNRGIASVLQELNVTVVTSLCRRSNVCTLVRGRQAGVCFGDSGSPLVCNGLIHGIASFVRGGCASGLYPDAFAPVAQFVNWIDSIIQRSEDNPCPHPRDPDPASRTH

[31] = Terminal half-life in iv dosed rhesus monkey; format: ADME, organism-based, Macaca mulatta; conditions: in vivo, read-out: beta t1/2 (converted)
[32] = Aqueous stability of the compound at pH 7 assessed as half-life; format: physicochemical; conditions: aqueous solution
[33] = Stability of the compound in 50% dioxane solution at 30 degreeC assessed as compound hydrolysis by measuring rate constant; format: physicochemical
[34] = Stability of the compound in 20% aqueous dioxane solution at 30 degreeC assessed as compound hydrolysis by measuring rate constant; format: physicochemical; conditions: buffer
[35] = target: Amyloid-beta precursor protein (Homo sapiens, UniProt P05067); assay: Inhibition of amyloid beta (1 to […] ) (unknown origin)
Chain of Amyloid-beta precursor protein (P05067 whole entry): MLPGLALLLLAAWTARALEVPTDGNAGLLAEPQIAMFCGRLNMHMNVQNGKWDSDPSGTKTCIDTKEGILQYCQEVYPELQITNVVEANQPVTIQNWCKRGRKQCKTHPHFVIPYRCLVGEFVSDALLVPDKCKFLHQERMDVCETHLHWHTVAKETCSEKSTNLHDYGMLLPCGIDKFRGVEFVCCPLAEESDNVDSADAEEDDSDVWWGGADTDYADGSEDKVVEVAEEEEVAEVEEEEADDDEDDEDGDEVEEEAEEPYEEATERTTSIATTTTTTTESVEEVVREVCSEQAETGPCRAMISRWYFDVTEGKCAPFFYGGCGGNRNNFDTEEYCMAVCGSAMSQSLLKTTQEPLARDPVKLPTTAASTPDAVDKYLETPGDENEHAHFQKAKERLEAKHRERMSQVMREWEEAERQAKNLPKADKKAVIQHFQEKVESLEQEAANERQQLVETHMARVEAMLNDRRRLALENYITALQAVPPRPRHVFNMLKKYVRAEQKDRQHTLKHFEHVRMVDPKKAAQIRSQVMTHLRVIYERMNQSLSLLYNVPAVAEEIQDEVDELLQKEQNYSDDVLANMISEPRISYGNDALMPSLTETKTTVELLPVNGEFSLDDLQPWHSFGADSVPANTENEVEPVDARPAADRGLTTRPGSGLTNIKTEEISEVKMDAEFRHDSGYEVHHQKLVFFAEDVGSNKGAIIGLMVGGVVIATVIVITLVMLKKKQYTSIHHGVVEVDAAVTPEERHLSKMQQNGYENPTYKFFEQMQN

[36] = Ratio of drug concentration in brain to plasma in mouse at 30 mg/kg, po measured after 6 hrs; format: ADME, organism-based; conditions: read-out: BPR
HEp-2 = assay: Anticancer activity against human HEp-2 cells; format: functional, cell-based
CCRF-CEM = assay: Anticancer activity against human CCRF-CEM cells; format: functional, cell-based
L1210 = assay: Anticancer activity against mouse L1210 cells; format: functional, cell-based
K562 = assay: Anticancer activity against human K562 cells; format: functional, cell-based
[37] = Stability of the compound assessed as compound hydrolysis by measuring relative rate constant by titrimetric method; format: physicochemical
[38] = Clearance in Chimpanzee at 0.5 mg/kg administered as iv infusion; format: ADME, organism-based, Pan troglodytes; conditions: in vivo
in vivo [39] = conditions: chimpanzee, iv, 0.5 mg/kg
[40] = Clearance in Chimpanzee at 0.5 mg/kg, iv bolus injection; format: ADME, organism-based, Pan troglodytes; conditions: in vivo
Candida albicans [41] = assay: Fungicidal activity against Candida albicans; format: functional
Candida albicans [42] = assay: Antifungal activity against Candida albicans GS; format: functional, organism-based
in vivo [43] = conditions: chimpanzee, iv, 0.5 mg/kg; remark: listed apart in the source
[44] = target: Muscarinic acetylcholine receptor M2 (Homo sapiens, UniProt P08172); assay: Antagonist activity at muscarinic M2 receptor (unknown origin) assessed as inhibition constant
Chain of Muscarinic acetylcholine receptor M2 (P08172 whole entry): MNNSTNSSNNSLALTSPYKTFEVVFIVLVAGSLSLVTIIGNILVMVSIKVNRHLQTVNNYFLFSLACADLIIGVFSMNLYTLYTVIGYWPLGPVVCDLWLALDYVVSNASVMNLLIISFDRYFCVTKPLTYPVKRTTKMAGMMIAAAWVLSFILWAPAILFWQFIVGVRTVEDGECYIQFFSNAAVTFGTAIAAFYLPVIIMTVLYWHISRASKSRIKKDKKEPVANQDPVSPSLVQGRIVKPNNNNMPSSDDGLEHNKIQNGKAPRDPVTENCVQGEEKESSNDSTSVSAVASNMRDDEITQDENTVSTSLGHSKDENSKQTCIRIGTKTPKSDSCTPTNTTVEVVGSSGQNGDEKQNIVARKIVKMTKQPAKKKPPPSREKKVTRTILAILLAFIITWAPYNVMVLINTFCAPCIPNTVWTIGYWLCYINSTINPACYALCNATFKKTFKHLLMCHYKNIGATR

Structure (SMILES): CCOc1ccc(Cc2cc([C@]34OC[C@](CO)(O3)[C@@H](O)[C@H](O)[C@H]4O)ccc2Cl)cc1 [ERTUGLIFLOZIN]
- half-life [1]: 7.6 h
- half-life [2]: 4.1 h

Structure (SMILES): CCOc1ccc(Cc2cc([C@]34CO[C@](CO)(O3)[C@@H](O)[C@H](O)[C@H]4O)ccc2Cl)cc1
- IC50 [3]: 714 nM

Structure (SMILES): CN1CCN(C2CCN(C(=O)CC3CCC4(CC3)OOC3(OO4)C4CC5CC(C4)CC3C5)CC2)CC1 (stereo unspecified)
- bioavailability [4]: 42%
- bioavailability [5]: 38%
- half-life [6]: 2.4 h

Structure (SMILES): Cc1cc(C)n(CCCC[C@H]2CO[C@H](c3nc(-c4ccccc4)c(-c4ccccc4)[nH]3)OC2)n1
- IC50 [7]: > 500 nM

Structure (SMILES): Nc1ccn([C@@H]2CO[C@H](CO)O2)c(=O)n1 [TROXACITABINE]
- bioavailability [8]: 37%
- bioavailability [9]: 41%

Structure (SMILES): c1ccc([C@]23OC[C@H](CCn4c2nc2ccccc24)O3)cc1
- ED50 (Mus musculus): 30 mg/kg
- remaining at 2 h [10]: 93.5%

Structure (SMILES): CO[C@H]1O[C@@H]2O[C@@]3(C)CC[C@H]4[C@H](C)CC[C@@H]([C@H]1C)[C@@]24OO3
- IC50 (Plasmodium falciparum): 3.5 nM
- ED50 [11]: 8.4 µmol/kg
- half-life [12]: 11 h

Structure (SMILES): O=C1OCc2c1cc1cc(OCc3cccc(C4(O)CC5COC(C4)O5)c3)ccc1c2-c1ccoc1 (stereo unspecified)
- IC50 [13]: 7 nM
- IC50 (Homo sapiens): 180 nM

Structure (SMILES): CCCCCOc1ccc(-c2ccc(-c3ccc(C(=O)N[C@H]4C[C@@H](O)[C@@H](OCC[N+](C)(C)C)NC(=O)[C@@H]5[C@@H](O)[C@@H](C)CN5C(=O)[C@H]([C@@H](C)O)NC(=O)[C@H]([C@H](O)[C@@H](O)c5ccc(O)cc5)NC(=O)[C@@H]5C[C@@H](O)CN5C(=O)[C@H]([C@@H](C)O)NC4=O)cc3)cc2)cc1 [REZAFUNGIN] ({pTerphenylCO(4''-OnC5H11)}-[Orn(4R-OH,5R-OCH2CH2NMe3+)]T[Hyp][hTyr(3S-OH,4S-OH)]T[Pro(3S-OH,4S-Me)]; lactam 1-C)
- metabolised at 44 h [14]: 9%
- metabolised at 44 h [15]: 21%
- metabolised at 44 h [16]: 7%
- metabolised at 44 h [17]: 6%

Structure (SMILES): COc1cc([C@@H]2c3cc4c(cc3[C@@H](O[C@@H]3O[C@@H]5CO[C@@H](C)O[C@H]5[C@H](O)[C@H]3O)[C@H]3COC(=O)[C@H]23)OCO4)cc(OC)c1O [ETOPOSIDE]
- solubility [18]: 116 µg/mL (≈ 197 µM)
- half-life [19]: 27.7 h
- half-life [20]: 2.88 h

Structure (SMILES): CCC[C@@H](NC(=O)N1C(=O)C(CC)(CC)[C@@H]1Oc1ccc(C(=O)N2CCN(C)CC2)cc1)c1ccc2c(c1)OCO2
- bioavailability [21]: 39%
- Tmax [22]: 8 h
- half-life [23]: 6 h
- bioavailability [5]: 65%

Structure (SMILES): CN1CCN(C(=O)O[C@H]2c3nccnc3C(=O)N2c2ccc(Cl)cn2)CC1 [ESZOPICLONE]
- Tmax [24]: 1 h
- half-life [25]: 5 h

Structure (SMILES): C[C@@H](c1c[nH]c2ccccc12)[C@H](C(=O)N[C@@H](CCCCN)C(=O)OC(C)(C)C)N1CCN(CCCc2ccccc2)C1=O
- bioavailability [26]: 5%
- Ki [27]: 3.6 nM

Structure (SMILES): CO[C@@]1(NC(=O)CCC[C@@H](N)C(=O)O)C(=O)N2C(C(=O)O)=C(COC(N)=O)CS[C@@H]21
- half-life [28]: 459 h

Structure (SMILES): CCC[C@@H](NC(=O)N1C(=O)C(CC)(CC)[C@@H]1Oc1ccc(CC(=O)O)cc1)c1ccc(C)cc1
- bioavailability [21]: 23%
- half-life [29]: 2.3 h
- K [30]: 6.2 10^5/M/s
- half-life [23]: 6 h
- bioavailability [5]: 100%
- half-life [31]: 5.8 h

Structure (SMILES): CC1(C)S[C@@H]2[C@H](NC(=O)[C@H](N)c3ccccc3)C(=O)N2[C@H]1C(=O)O [AMPICILLIN]
- half-life [32]: 0.25 h

Structure (SMILES): COc1ccc(C2(c3ccc(OC)cc3)OCCO2)cc1
- K [33]: 1.2 10^-1/M/s
- K [34]: 8.5 10^-1/M/s

Structure (SMILES): CCC(=O)O[C@@H]([C@H]1C[C@@H](C)[C@H]2[C@H](O1)[C@H](O)[C@@]1(C)[C@@H]3CC[C@H]4C(C)(C)[C@@H](O[C@H]5CN(C6CN(C)C6)CCO5)CC[C@@]45C[C@@]35CC[C@]21C)C(C)(C)O
- IC50 [35]: 100 nM
- Kp at 6 h [36]: 0.55
- bioavailability [4]: 45%

Structure (SMILES): Nc1nc(F)nc2c1ncn2[C@@H]1O[C@H](COP(=O)(O)O)[C@@H](O)[C@@H]1O [FLUDARABINE PHOSPHATE]
- IC50 (HEp-2): 9000 nM
- IC50 (CCRF-CEM): 400 nM
- IC50 (L1210): 3000 nM
- IC50 (K562): 150 nM

Structure (SMILES): CC1(C)OCCO1
- K [37]: 5.4 10^4No_unit

Structure (SMILES): CC[C@H](C)C[C@H](C)CCCCCCCCC(=O)N[C@H]1C[C@@H](O)[C@@H](OCCN)NC(=O)[C@@H]2[C@@H](O)CCN2C(=O)[C@H]([C@H](O)CCN)NC(=O)[C@H]([C@H](O)[C@@H](O)c2ccc(O)cc2)NC(=O)[C@@H]2C[C@@H](O)CN2C(=O)[C@H]([C@@H](C)O)NC1=O
- clearance [38]: 0.56 mL/min/kg
- half-life (in vivo [39]): 2.6 h
- clearance [40]: 0.58 mL/min/kg
- MFC (Candida albicans [41]): < 0.06 µg/mL
- IC50 (Candida albicans [42]): 1 nM
- half-life (in vivo [43]): 2.8 h

Structure (SMILES): CCCS(=O)(=O)N1CCC(N2CCC(C3(c4ccc(S(=O)(=O)c5ccc6c(c5)OCO6)cc4)CCCO3)CC2)CC1 (stereo unspecified)
- Ki [44]: 5 nM
